Experimental data: article PMC10287566, “Signaling-specific inhibition of the CB1 receptor for cannabis use disorder: phase 1 and phase 2a randomized trials” (Nature Medicine, 2023)

Test system: volunteers with CUD
Assay: Phase 2a study, subjective effects of smoked cannabis (VAS, CRF)
Assay type: in vivo, human
Conditions: for reduction of cannabis' positive subjective effects compared to placebo: Phase 2a
Protocol: Participants, in groups of 3−4, completed two 5-d inpatient periods (first period ‘A’ and second period ‘B’) separated by a ≥ 14-d outpatient washout. During the two testing periods, participants received AEF0117 or matching placebo in counterbalanced order (two dosing sequences: AEF0117 first or placebo first). Participants took capsules at 9:00 each day and then smoked a controlled amount of cannabis (approximately 67 mg of THC smoked over 6 min) 3.5 h later (12:30). Ratings of the subjective effects of cannabis were done five times after cannabis administration (20 min, 40 min, 60 min, 90 min and 120 min after cannabis) using a VAS (0–100 mm). […] Participants were told that the cannabis strength could vary from day to day and between participants but that the cannabis they each received at 12:30 that day was the strength available for self-administration that day.
The primary endpoint measuring the good subjective effect of cannabis related to addiction was an ‘Intoxication’ subscale based on a cluster analysis of the 44-item VAS[22], comprising the arithmetic mean of two items: ‘I feel a Good Effect’ and ‘I feel High’[22]. The positive subjective effects of cannabis were further assessed by individual items on the Cannabis Rating Form (CRF)[23], where participants rated the cannabis that they had most recently smoked in terms of ‘Cannabis Cigarette Liking’ and ‘Felt Good Cannabis Effect’ (key secondary endpoints) using a VAS. Cannabis self-administration was evaluated by measuring the number of puffs purchased at each timepoint (key secondary endpoint).
Data from the first dose level were reviewed by the Data Safety Monitoring Board before ascending to the next dose level.
Ratings of subjective effects of cannabis were performed using multiple items from two different instruments: (1) the 44-item VAS[22] and (2) the CRF[23]. Both instruments used visual analog scales (from 0 mm to 100 mm) to measure subjective effects. […] The subscale of the 44-item VAS was initially named the ‘Good Cannabis Effect’ subscale. Before starting the statistical analysis, this subscale was renamed ‘Intoxication’ subscale to avoid confusion with a key secondary endpoint on the CRF labeled ‘Felt Good Cannabis Effect’.
On each study day (days 1–5), at approximately 12:30, participants received an experimenter-administered ‘sample’ of cannabis (two cannabis cigarettes of approximately 800 mg, 7% THC, provided by NIDA). They were guided by an investigator through smoking a total of six 5-s inhalations using a paced-puff smoking procedure, where inhalation duration, time spent holding smoke in the lungs and inter-puff interval were timed. […] To capture a full timecourse of cannabis effects, participants completed the 44-item VAS and a CRF at 12:50, 13:10, 13:30, 14:[…].
As specified in the SAP, the statistical analyses employed an MMRM analysis using the REML as estimation method and structured covariance matrix with compound symmetry; the model included as factors and covariates: sequence, dose, treatment, time and days as fixed effects and subject within sequence as random effect.
Based on the SAP, the following analytical steps depending on results of the various analyses were undertaken. The primary and key secondary endpoints were first analyzed with a global crossover MMRM analysis (using combined cohorts: 0.06 mg + 1 mg).

[1] = global crossover, 0.06 mg, 20 min after THC
[2] = global crossover, 0.06 mg, 40 min after THC
[3] = global crossover, 0.06 mg, 60 min after THC
[4] = global crossover, 0.06 mg, 90 min after THC
[5] = global crossover, 0.06 mg, 105 min after THC
[6] = global crossover, 1 mg, 20 min after THC
[7] = global crossover, 1 mg, 40 min after THC
[8] = global crossover, 1 mg, 60 min after THC
[9] = global crossover, 1 mg, 90 min after THC
[10] = global crossover, 1 mg, 105 min after THC
[11] = parallel group (period A), 0.06 mg, 20 min after THC
[12] = parallel group (period A), 0.06 mg, 40 min after THC
[13] = parallel group (period A), 0.06 mg, 60 min after THC
[14] = parallel group (period A), 0.06 mg, 90 min after THC
[15] = parallel group (period A), 0.06 mg, 105 min after THC
[16] = parallel group (period A), 1 mg, 20 min after THC
[17] = parallel group (period A), 1 mg, 40 min after THC
[18] = parallel group (period A), 1 mg, 60 min after THC
[19] = parallel group (period A), 1 mg, 90 min after THC
[20] = parallel group (period A), 1 mg, 105 min after THC

COc1ccc(CO[C@H]2CC[C@@]3(C)C(=CC[C@H]4[C@@H]5CC[C@H](C(C)=O)[C@@]5(C)CC[C@@H]43)C2)cc1 [AEF0117, 3β-(4-methoxybenzyloxy)pregn-5-en-20-one]
cannabis ratings (0.06 mg, parallel group analysis, period A): significant reduction | 'Felt Good Cannabis Effect' item on the CRF (1 mg, global crossover MMRM): significantly reduced | ratings on the 'Intoxication' subscale of the 44-item VAS (1 mg, global crossover MMRM): significantly reduced | reduction of cannabis' positive subjective effects compared to placebo (0.06 mg): 19% | reduction of cannabis' positive subjective effects compared to placebo (1 mg): 38% | Cannabis cigarette liking item, mean [1]: 76.2 mm | Felt good cannabis effect item, mean [1]: 77.9 mm | Intoxication subscale, mean [1]: 63.7 mm | Cannabis cigarette liking item, mean [2]: 74.9 mm | Felt good cannabis effect item, mean [2]: 76.1 mm | Intoxication subscale, mean [2]: 58.8 mm | Cannabis cigarette liking item, mean [3]: 72.6 mm | Felt good cannabis effect item, mean [3]: 72.7 mm | Intoxication subscale, mean [3]: 53.9 mm | Cannabis cigarette liking item, mean [4]: 73.5 mm | Felt good cannabis effect item, mean [4]: 75.8 mm | Intoxication subscale, mean [4]: 47.1 mm | Cannabis cigarette liking item, mean [5]: 73.2 mm | Felt good cannabis effect item, mean [5]: 75.0 mm | Intoxication subscale, mean [5]: 44.4 mm | Cannabis cigarette liking item, mean [6]: 61.7 mm | Felt good cannabis effect item, mean [6]: 66.8 mm | Intoxication subscale, mean [6]: 66.8 mm | Cannabis cigarette liking item, mean [7]: 57.8 mm | Felt good cannabis effect item, mean [7]: 62.4 mm | Intoxication subscale, mean [7]: 61.5 mm | Cannabis cigarette liking item, mean [8]: 54.8 mm | Felt good cannabis effect item, mean [8]: 58.0 mm | Intoxication subscale, mean [8]: 57.2 mm | Cannabis cigarette liking item, mean [9]: 54.0 mm | Felt good cannabis effect item, mean [9]: 56.1 mm | Intoxication subscale, mean [9]: 48.2 mm | Cannabis cigarette liking item, mean [10]: 54.4 mm | Felt good cannabis effect item, mean [10]: 54.7 mm | Intoxication subscale, mean [10]: 43.7 mm | Cannabis cigarette liking item, mean [11]: 68.3 mm | Felt good cannabis effect item, mean [11]: 73.0 mm | Intoxication subscale, mean [11]: 57.1 mm | Cannabis cigarette liking item, mean [12]: 65.5 mm | Felt good cannabis effect item, mean [12]: 70.2 mm | Intoxication subscale, mean [12]: 50.9 mm | Cannabis cigarette liking item, mean [13]: 62.3 mm | Felt good cannabis effect item, mean [13]: 65.7 mm | Intoxication subscale, mean [13]: 44.4 mm | Cannabis cigarette liking item, mean [14]: 61.8 mm | Felt good cannabis effect item, mean [14]: 67.4 mm | Intoxication subscale, mean [14]: 38.0 mm | Cannabis cigarette liking item, mean [15]: 63.1 mm | Felt good cannabis effect item, mean [15]: 68.2 mm | Intoxication subscale, mean [15]: 37.8 mm | Cannabis cigarette liking item, mean [16]: 63.9 mm | Felt good cannabis effect item, mean [16]: 67.9 mm | Intoxication subscale, mean [16]: 67.0 mm | Cannabis cigarette liking item, mean [17]: 59.3 mm | Felt good cannabis effect item, mean [17]: 60.6 mm | Intoxication subscale, mean [17]: 58.9 mm | Cannabis cigarette liking item, mean [18]: 54.5 mm | Felt good cannabis effect item, mean [18]: 53.3 mm | Intoxication subscale, mean [18]: 54.5 mm | Cannabis cigarette liking item, mean [19]: 55.7 mm | Felt good cannabis effect item, mean [19]: 50.7 mm | Intoxication subscale, mean [19]: 45.5 mm | Cannabis cigarette liking item, mean [20]: 55.9 mm | Felt good cannabis effect item, mean [20]: 52.3 mm | Intoxication subscale, mean [20]: 40.8 mm
